According to PubChem BioAssay AID1963825 (Molecular Pharmacology Branch, DTP, NCI, 2024):

Experiment: Anticancer human tumor 997537-175-T-J1-PDC patient-derived colon adenocarcinoma cell line growth inhibition [POLQ]
Conditions: 997537-175-T-J1-PDC complex spheroid viability, combination with POLQ inhibitors; for IC50: curve of first compound; for viability, T/C: stronger effect = lower value
In short: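 Three-cell-type spheroids modelling solid tumor plus stroma served as the readout system; POL inhibitors were tested individually and in combination, concentration ranges set by clinical Cmax where known.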

[1] = second compound 0.0316 µM, first compound 0.0316 µM
[2] = second compound 0.0316 µM, first compound 0.1 µM
[3] = second compound 0.0316 µM, first compound 0.316 µM
[4] = second compound 0.0316 µM, first compound 1 µM
[5] = second compound 0.1 µM, first compound 0.0316 µM
[6] = second compound 0.1 µM, first compound 0.1 µM
[7] = second compound 0.1 µM, first compound 0.316 µM
[8] = second compound 0.1 µM, first compound 1 µM
[9] = second compound 0.316 µM, first compound 0.0316 µM
[10] = second compound 0.316 µM, first compound 0.1 µM
[11] = second compound 0.316 µM, first compound 0.316 µM
[12] = second compound 0.316 µM, first compound 1 µM
[13] = second compound 1 µM, first compound 0.0316 µM
[14] = second compound 1 µM, first compound 0.1 µM
[15] = second compound 1 µM, first compound 0.316 µM
[16] = second compound 1 µM, first compound 1 µM
[17] = second compound 3.16 µM, first compound 0.0316 µM
[18] = second compound 3.16 µM, first compound 0.1 µM
[19] = second compound 3.16 µM, first compound 0.316 µM
[20] = second compound 3.16 µM, first compound 1 µM
[21] = second compound 10 µM, first compound 0.0316 µM
[22] = second compound 10 µM, first compound 0.1 µM
[23] = second compound 10 µM, first compound 0.316 µM
[24] = second compound 10 µM, first compound 1 µM
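Further: luminescence signal used as a surrogate for viable cells; spheroids exposed to drugs for seven days before readout.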

SMILES: CCCS(=O)(=O)Nc1ccc(F)c(C(=O)c2c[nH]c3ncc(-c4ccc(Cl)cc4)cc23)c1F + COC1C(OC(N)=O)C(O)C(Oc2ccc3c(O)c(NC(=O)c4ccc(O)c(CC=C(C)C)c4)c(=O)oc3c2C)OC1(C)C
- IC50 (second compound 0.0316 µM): 5.71 µM
- IC50 (second compound 0.1 µM): 7.59 µM
- IC50 (second compound 0.316 µM): 6.66 µM
- IC50 (second compound 1 µM): 5.26 µM
- IC50 (second compound 3.16 µM): 6.2 µM
- IC50 (second compound 10 µM): 4.78 µM
- viability, T/C [1]: 93.4%
- viability, T/C [2]: 96%
- viability, T/C [3]: 87.1%
- viability, T/C [4]: 84.8%
- viability, T/C (second compound 0.0316 µM, first compound 3.16 µM): 71.5%
- viability, T/C (second compound 0.0316 µM, first compound 10 µM): 30.6%
- viability, T/C [5]: 102%
- viability, T/C [6]: 92.6%
- viability, T/C [7]: 84.9%
- viability, T/C [8]: 78%
- viability, T/C (second compound 0.1 µM, first compound 3.16 µM): 77%
- viability, T/C (second compound 0.1 µM, first compound 10 µM): 41.2%
- viability, T/C [9]: 82.8%
- viability, T/C [10]: 91.6%
- viability, T/C [11]: 77.8%
- viability, T/C [12]: 84.1%
- viability, T/C (second compound 0.316 µM, first compound 3.16 µM): 75%
- viability, T/C (second compound 0.316 µM, first compound 10 µM): 36.2%
- viability, T/C [13]: 86.4%
- viability, T/C [14]: 79.5%
- viability, T/C [15]: 73.2%
- viability, T/C [16]: 75.2%
- viability, T/C (second compound 1 µM, first compound 3.16 µM): 72.7%
- viability, T/C (second compound 1 µM, first compound 10 µM): 21.7%
- viability, T/C [17]: 95.6%
- viability, T/C [18]: 78.9%
- viability, T/C [19]: 77.3%
- viability, T/C [20]: 73.5%
- viability, T/C (second compound 3.16 µM, first compound 3.16 µM): 78%
- viability, T/C (second compound 3.16 µM, first compound 10 µM): 30.1%
- viability, T/C [21]: 81.4%
- viability, T/C [22]: 84%
- viability, T/C [23]: 90.8%
- viability, T/C [24]: 85.6%
- viability, T/C (second compound 10 µM, first compound 3.16 µM): 63.9%
- viability, T/C (second compound 10 µM, first compound 10 µM): 25.3%

SMILES: COc1cccc(OCCCN)c1-c1cc(Nc2cnc(C#N)cn2)n[nH]1 + COC1C(OC(N)=O)C(O)C(Oc2ccc3c(O)c(NC(=O)c4ccc(O)c(CC=C(C)C)c4)c(=O)oc3c2C)OC1(C)C
- IC50 (second compound 0.0316 µM): 0.0468 µM
- IC50 (second compound 0.1 µM): 0.121 µM
- IC50 (second compound 0.316 µM): 0.0778 µM
- IC50 (second compound 1 µM): 0.0324 µM
- IC50 (second compound 3.16 µM): 0.0575 µM
- IC50 (second compound 10 µM): 0.0599 µM
- viability, T/C (second compound 0.0316 µM, first compound 0.00316 µM): 100%
- viability, T/C (second compound 0.0316 µM, first compound 0.01 µM): 95.6%
- viability, T/C [1]: 59.9%
- viability, T/C [2]: 28.1%
- viability, T/C [3]: 33.6%
- viability, T/C [4]: 30.7%
- viability, T/C (second compound 0.1 µM, first compound 0.00316 µM): 106%
- viability, T/C (second compound 0.1 µM, first compound 0.01 µM): 64.9%
- viability, T/C [5]: 76.8%
- viability, T/C [6]: 43.2%
- viability, T/C [7]: 51.6%
- viability, T/C [8]: 17%
- viability, T/C (second compound 0.316 µM, first compound 0.00316 µM): 107%
- viability, T/C (second compound 0.316 µM, first compound 0.01 µM): 95%
- viability, T/C [9]: 63.8%
- viability, T/C [10]: 55.3%
- viability, T/C [11]: 16.9%
- viability, T/C [12]: 30.2%
- viability, T/C (second compound 1 µM, first compound 0.00316 µM): 105%
- viability, T/C (second compound 1 µM, first compound 0.01 µM): 88%
- viability, T/C [13]: 52.2%
- viability, T/C [14]: 24.1%
- viability, T/C [15]: 23.2%
- viability, T/C [16]: 24.4%
- viability, T/C (second compound 3.16 µM, first compound 0.00316 µM): 104%
- viability, T/C (second compound 3.16 µM, first compound 0.01 µM): 80.7%
- viability, T/C [17]: 55.8%
- viability, T/C [18]: 48.7%
- viability, T/C [19]: 28.6%
- viability, T/C [20]: 47.1%
- viability, T/C (second compound 10 µM, first compound 0.00316 µM): 95.2%
- viability, T/C (second compound 10 µM, first compound 0.01 µM): 79.8%
- viability, T/C [21]: 73.1%
- viability, T/C [22]: 31.4%
- viability, T/C [23]: 24.9%
- viability, T/C [24]: 28%
